Assay results as given in US20080207614A1, “QUINAZOLINE DERIVATIVES FOR THE TREATMENT AND PREVENTION OF DIABETES AND OBESITY” (SK CHEMICALS CO., LTD., priority 2004, published 2008).

Tests used:
[1] = tested on: C2C12 muscle cells; assay: Analysis of glucose absorption (2-deoxyglucose) in differentiated C2C12 muscle cells; assay type: cell-based; conditions: test materials 10 μM, times relative to control group
Outline: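 Uptake of 0.2 μCi 2-deoxyglucose over 20 min, counted radiometrically in lysed cells. Before tracer, compounds (10 μM) were applied for 30 min to C2C12 cells differentiated 6 days in 1% serum and equilibrated 3 h in 5 mM glucose KRB.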

[2] = tested on: AMPK; assay: Measurement of AMPK activity by Western blot in C2C12 cells; assay type: cell-based; set-up: key to AMPK activity (degree of phosphorylation of serine-79 and threonine-172): fold increase in threonine-172 phosphorylation; AMPK activity (degree of phosphorylation of serine-79): unit not given here; conditions: 10 μM for 50 minutes; for AMPK activity (degree of phosphorylation of serine-79 and threonine-172): no superscript: Western blot of serine-79 and threonine-172 phosphorylation; for AMPK activity (class: degree of phosphorylation of threonine-172): strong/mild/weak; for AMPK activity (degree of phosphorylation of serine-79): footnote a: Western blot of serine-79 phosphorylation
Outline: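 Western blot readout of AMPK Thr-172 and ACC Ser-79 phosphorylation, normalised against ERK, served as the activity measure. Cells were C2C12 after differentiation, treated 50 minutes with 10 μM test material. Grading by Thr-172 increase: ≥3-fold strong, 1-3-fold mild, <1-fold weak.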

Row | SMILES | Glucose absorption [1] | AMPK activity (degree of phosphorylation of serine-79 and threonine-172) [2] | AMPK activity (class: degree of phosphorylation of threonine-172) [2] | AMPK activity (degree of phosphorylation of serine-79) [2]
1 | COc1cccc(CNc2ncnc3ccccc23)c1 [Compound 405, (3-Methoxybenzyl)-quinazolino-4-ylamine] | 2.2 | 2.7 |  | 
2 | Cc1nc(NCCCCc2ccccc2)c2ccccc2n1 [Compound 168, (2-Methylquinazolino-4-yl)-(4-phenylbutyl)-amine] | 3.6 | 8.4 | strong (“strong” means that the degree of phosphorylation of threonine-172 increased by 3 times or more) | 
3 | COc1cc(CNc2ncnc3ccccc23)cc(OC)c1 [Compound 409, (3,5-Dimethoxybenzyl)-quinazolino-4-ylamine] | 1.6 | 3.3 |  | 
4 | CC(C)(C)c1nc(NCCc2ccccc2)c2ccccc2n1 [Compound 191, (2-tert-Butylquinazolino-4-yl)-phenethylamine] | 2.4 | 5.2 | strong (“strong” means that the degree of phosphorylation of threonine-172 increased by 3 times or more) | 
5 | COc1ccccc1CNc1ncnc2ccccc12 [Compound 404, (2-Methoxybenzyl)-quinazolino-4-ylamine] | 2.1 | 1.9 |  | 
6 | COc1cc(OC)c(CNc2nc(C(C)C)nc3ccccc23)c(OC)c1 [Compound 327, (2-Isopropylquinazolino-4-yl)-(2,4,6-trimethoxybenzyl)-amine] | 1.3 | 4.4 |  | 
7 | COc1cccc(CNc2nc(Cc3ccccc3)nc3ccccc23)c1OC [Compound 329, (2-Benzylquinazolino-4-yl)-(2,3-dimethoxybenzyl)-amine] | 1.8 | 4.2 |  | 
8 | CCSc1nc(NCc2ccc3c(c2)OCO3)c2ccccc2n1 [Compound 37, Benzo[1,3]dioxol-5-ylmethyl-(2-ethylsulfanylquinazolino-4-yl)-amine] | 2.2 |  | strong (“strong” means that the degree of phosphorylation of threonine-172 increased by 3 times or more) | 
9 | CC(C)c1nc(NCc2ccccc2)c2ccccc2n1 [Compound 175, Benzyl-(2-isopropylquinazolino-4-yl)-amine] | 2.7 | 4.8 | strong (“strong” means that the degree of phosphorylation of threonine-172 increased by 3 times or more) | 
10 | CCSc1nc(NCc2cccc(C(F)(F)F)c2)c2ccccc2n1 [Compound 26, (2-Ethylsulfanylquinazolino-4-yl)-(3-trifluoromethylbenzyl)-amine] | 1.7 |  | mild (“mild” means that the degree of phosphorylation of threonine-172 increased by 1 to 3 times) | 
11 | Cc1nc(NCCc2cccc(F)c2)c2ccccc2n1 [Compound 172, [2-(3-Fluorophenyl)-ethyl]-(2-methylquinazolino-4-yl)-amine] | 2.6 | 4.4 | strong (“strong” means that the degree of phosphorylation of threonine-172 increased by 3 times or more) | 
12 | ClC(Cl)(Cl)c1nc(NC2CC2)c2ccccc2n1 [Compound 3, Cyclopropyl-(2-trichloromethylquinazolino-4-yl)-amine] | 1.2 |  |  | 3.3^a
13 | c1ccc2c(NCc3ccc4c(c3)OCO4)nc(N3CCCC3)nc2c1 [Compound 307, Benzo[1,3]dioxol-5-ylmethyl-(2-pyrrolidino-1-ylquinazolino-4-yl)-amine] | 0.8 | 2.0 |  | 
14 | Fc1ccccc1CCNc1nc(-c2ccccc2)nc2ccccc12 [Compound 140, [2-(2-Fluorophenyl)-ethyl]-(2-phenylquinazolino-4-yl)-amine] | 2.7 | 3.1 | strong (“strong” means that the degree of phosphorylation of threonine-172 increased by 3 times or more) | 
15 | COc1ccc(OC)c(CNc2nc(N3CCN(C)CC3)nc3ccccc23)c1 [Compound 298, (2,5-Dimethoxybenzyl)-[2-(4-methylpiperazino-1-yl)-quinazolino-4-yl]-amine] | 0.6 | 0.7 |  | 
16 | COc1ccc(CNc2nc(C(C)C)nc3ccccc23)c(OC)c1 [Compound 271, (2,4-Dimethoxybenzyl)-(2-isopropylquinazolino-4-yl)-amine] | 0.8 | 2.4 |  | 
17 | COc1cc(CNc2nc(C(C)C)nc3ccccc23)cc(OC)c1OC [Compound 325, (2-Isopropylquinazolino-4-yl)-(3,4,5-trimethoxybenzyl)-amine] | 1.2 | 2.2 |  | 
18 | Cc1nc(NCc2ccc3c(c2)OCO3)c2ccccc2n1 [Compound 170, Benzo[1,3]dioxol-5-ylmethyl-(2-methylquinazolino-4-yl)-amine] | 2.4 | 8.8 | strong (“strong” means that the degree of phosphorylation of threonine-172 increased by 3 times or more) | 
19 | Brc1ccc(CNc2nc(-c3ccccc3)nc3ccccc23)cc1 [Compound 148, (4-Bromobenzyl)-(2-phenylquinazolino-4-yl)-amine] | 2.1 | 1.7 | strong (“strong” means that the degree of phosphorylation of threonine-172 increased by 3 times or more) | 
20 | COc1ccccc1CNc1nc(C2CC2)nc2ccccc12 [Compound 382, (2-Cyclopropylquinazolino-4-yl)-(2-methoxybenzyl)-amine] | 1.2 | 2.2 |  | 
21 | Fc1ccc(CCNc2nc(-c3ccccc3)nc3ccccc23)cc1F [Compound 128, [2-(3,4-Difluorophenyl)-ethyl]-(2-phenylquinazolino-4-yl)-amine] | 2.3 | 1.7 | strong (“strong” means that the degree of phosphorylation of threonine-172 increased by 3 times or more) | 
22 | CC(C)c1nc(NCc2ccc3c(c2)OCO3)c2ccccc2n1 [Compound 182, Benzo[1,3]dioxol-5-ylmethyl-(2-isopropylquinazolino-4-yl)-amine] | 3.1 | 2.9 | strong (“strong” means that the degree of phosphorylation of threonine-172 increased by 3 times or more) | 
23 | c1ccc(CNc2nc(C3CCCCC3)nc3ccccc23)cc1 [Compound 199, Benzyl-(2-cyclohexylquinazolino-4-yl)-amine] | 2.1 | 2.3 | strong (“strong” means that the degree of phosphorylation of threonine-172 increased by 3 times or more) | 
24 | CCSc1nc(NCc2ccc(OC)cc2)c2ccccc2n1 [Compound 25, (2-Ethylsulfanylquinazolino-4-yl)-(4-methoxybenzyl)-amine] | 2.6 |  | strong (“strong” means that the degree of phosphorylation of threonine-172 increased by 3 times or more) | 
25 | Clc1ccc(CCNc2nc(-c3ccccc3)nc3ccccc23)cc1 [Compound 123, [2-(4-chlorophenyl)-ethyl]-(2-phenylquinazolino-4-yl)-amine] | 2.1 | 2.3 | strong (“strong” means that the degree of phosphorylation of threonine-172 increased by 3 times or more) | 
26 | ClC(Cl)(Cl)c1nc(NCCN2CCCCC2)c2ccccc2n1 [Compound 4, (2-Piperidino-1-ylethyl)-(2-trichloromethylquinazolino-4-yl)-amine] | 1.2 |  |  | 3.5^a
27 | COc1ccc(OC)c(CNc2nc(C(OC)c3ccccc3)nc3ccccc23)c1 (stereo not shown) [Compound 369, (2,5-Dimethoxybenzyl)-[2-(methoxyphenylmethyl)-quinazolino-4-yl]-amine] | 1.1 | 4.5 |  | 
28 | CC(C)CC(C)Nc1nc(-c2ccccc2)nc2ccccc12 (stereo not shown) [Compound 125, (1,3-Dimethylbutyl)-(2-phenylquinazolino-4-yl)-amine] | 2.8 | 1.8 | strong (“strong” means that the degree of phosphorylation of threonine-172 increased by 3 times or more) | 
29 | COc1ccc(CNc2nc(N3CCOCC3)nc3ccccc23)c(OC)c1 [Compound 293, (2,4-Dimethoxybenzyl)-(2-morpholino-4-ylquinazolino-4-yl)-amine] | 0.6 | 0.1 |  | 
